Test: Solubility evaluation at room temperature in methyl benzoate and ethyl benzoate
Type: physicochemical
Conditions: for solubility: room temperature, concentration of 2 wt %
Protocol: The solubility of each of the compound prepared in the synthesis examples and the comparative compound [BH1] was measured at room temperature in methyl benzoate and ethyl benzoate. The case in which all the components were dissolved at a concentration of 2 wt % was evaluated as O, and the case in which all the components were not dissolved was evaluated as X, and the results are shown in the following Table 1.

| SMILES | solubility (ethyl benzoate) | solubility (methyl benzoate) | solubility with respect to methyl benzoate [wt %] |
| --- | --- | --- | --- |
| CC(C)c1cc(-c2c3ccccc3c(-c3cc4ccccc4c4ccccc34)c3ccccc23)cc(C(C)C)c1 [Compound 46] | ◯ | ◯ | – |
| [2H]c1c([2H])c([2H])c(-c2c3ccccc3c(-c3c(CCC)c4ccccc4c4ccccc34)c3ccccc23)c([2H])c1[2H] [Compound 55] | ◯ | ◯ | – |
| c1ccc2c(-c3c4ccccc4c(-c4cccc5ccccc45)c4ccccc34)cccc2c1 [BH1, reference compound] | – | – | < 2 |
